In ChEMBL document CHEMBL1151046, “Selective cyclooxygenase inhibitors: Novel 4-spiro 1,2-diarylcyclopentenes are potent and orally active cox-2 inhibitors” (Bioorg Med Chem Lett, 1995):

What was measured:
physchem = details: octanol/water
[1] = target: Prostaglandin G/H synthase 1 (Homo sapiens, UniProt P23219)
Rattus norvegicus [2] = organism: Rattus norvegicus; test: animal or person; assay type: functional; details: po
Rattus norvegicus [3] = organism: Rattus norvegicus; test: animal or person; details: po, read-out: Inhibition
Rattus norvegicus [4] = organism: Rattus norvegicus; assay type: functional, Stomach

Prostaglandin G/H synthase 1, sequence (P23219 whole entry): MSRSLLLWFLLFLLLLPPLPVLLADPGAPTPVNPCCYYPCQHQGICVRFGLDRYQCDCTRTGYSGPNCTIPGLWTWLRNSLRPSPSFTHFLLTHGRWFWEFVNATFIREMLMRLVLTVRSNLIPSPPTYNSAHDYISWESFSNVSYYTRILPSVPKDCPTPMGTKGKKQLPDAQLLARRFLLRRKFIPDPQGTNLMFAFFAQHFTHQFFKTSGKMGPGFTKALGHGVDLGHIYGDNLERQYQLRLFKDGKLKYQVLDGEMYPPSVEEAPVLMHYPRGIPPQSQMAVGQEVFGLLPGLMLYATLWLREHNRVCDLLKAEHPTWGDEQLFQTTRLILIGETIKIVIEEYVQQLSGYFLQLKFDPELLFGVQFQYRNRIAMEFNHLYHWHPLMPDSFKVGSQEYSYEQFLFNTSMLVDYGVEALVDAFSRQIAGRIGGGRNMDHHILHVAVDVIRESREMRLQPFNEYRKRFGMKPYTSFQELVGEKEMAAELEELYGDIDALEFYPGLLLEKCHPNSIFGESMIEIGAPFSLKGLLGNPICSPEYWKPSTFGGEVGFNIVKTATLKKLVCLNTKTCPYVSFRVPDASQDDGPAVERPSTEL

| Compound | logP (physchem) | inhibition in vivo at 30 mg/kg (Rattus norvegicus [2]) | other results |
| --- | --- | --- | --- |
| CS(=O)(=O)Nc1ccc([N+](=O)[O-])cc1OC1CCCCC1 [NS-398] | – | 60% | – |
| CS(=O)(=O)c1ccc(C2=C(c3ccc(F)cc3)CC3(CCCCC3)C2)cc1 | – | – | IC50 [1]: > 100 µM |
| CC1(C)CC(c2ccc(F)cc2)=C(c2ccc(S(C)(=O)=O)cc2)C1 | – | – | inhibition in vivo at 30 mg/kg (Rattus norvegicus [3]): 50% |
| CS(=O)(=O)c1ccc(C2=C(c3ccc(F)cc3)CC3(CCCC3)C2)cc1 | 5.4 | – | – |
| COc1ccc2c(c1)c(CC(=O)O)c(C)n2C(=O)c1ccc(Cl)cc1 [INDOMETHACIN] | – | 66% | – |

Now from value to compound, other results behind:

| logP (physchem) | Compound | inhibition in vivo at 30 mg/kg (Rattus norvegicus [2]) | other results |
| --- | --- | --- | --- |
| 4.5 | CS(=O)(=O)c1ccc(C2=C(c3ccc(F)cc3)CC3(CC3)C2)cc1 | 38% | IC50 [1]: 5.4 µM |
| 4 | NS(=O)(=O)c1ccc(C2=C(c3ccc(F)cc3)CC3(CC3)C2)cc1 | 60% | Gastric lesions (Rattus norvegicus [4]): 10 |
| 4.1 | NS(=O)(=O)c1ccc(C2=C(c3ccc(F)cc3)CC3(CCC3)C2)cc1 | 37% | – |
| 4.9 | CS(=O)(=O)c1ccc(C2=C(c3ccc(F)cc3)CC3(CCC3)C2)cc1 | 23% | – |
